Results published in patent US6403774B1, “Azoamidine compound” (Wako Pure Chemical Industries, Ltd., priority 2000, dated 2002).

Test: Thermal decomposition of the azo compound (10 hour half-life temperature, decomposition rate constant)
Format: physicochemical

2,2′-azobis[2-methyl-1-(1-pyrrolidinyl)iminopropane] hydrochloride [Example 1]
10 hour half-life temperature: 66.5 °C
Decomposition rate constant k60° C. (60° C.): 7.94e-06 s⁻¹
Decomposition rate constant k70° C. (70° C.): 3.03e-05 s⁻¹
Ea (decomposition kinetics): 30.39 kcal/mol
lnA (decomposition kinetics): 34.19
